Results from patent publication US7005513B1, “Functionalized glycosaminoglycan polymer and medical instruments and drugs by using the same” (Netech, Inc., priority 1999, dated 2006).

System: human coronary artery endothelial cells (CEC)
Test: CEC proliferation on coated multiplate (WST-1)
Format: cell-based
Parameters: reference not given here
Conditions: substance as plate coating, 3 days
Description: A polystyrene 96-well multiplate was coated with aqueous P-I-20 or P-N-12 solutions (0.5 mg/ml) of the present invention, and also 2% gelatin and 10 μg/ml of human fibronectin solution, these were inoculated with 6,000 human coronary artery endothelial cells (CEC) suspended in a Dulbecco modified Eagle medium (10% fetal bovine serum added), after which FGF2 or VEGF165 were added as cell growth factors, and this was cultured from 3 days. After culturing, a WST-1 reagent (cell counting kit, Dojindo) was used to count the number of increased cells, and the results of an evaluation of the proliferation rate are shown in Table 1.

| Substance | CEC Proliferation Rate (FGF2 4 μg/l) | CEC Proliferation Rate (FGF2 8 μg/l) | CEC Proliferation Rate (VEGF165 4 μg/l) | CEC Proliferation Rate (VEGF165 8 μg/l) |
| --- | --- | --- | --- | --- |
| Fibronectin | 273 | 327 | 371 | 436 |
| Gelatin | 356 | 389 | 335 | 385 |
